# Measured values published in ChEMBL document CHEMBL1144365, “Benzodipyrazoles: a new class of potent CDK2 inhibitors” (Bioorg Med Chem Lett, 2005).
# Legend:
# [1] = target: Cyclin-dependent kinase 2/cyclin A (Homo sapiens, UniProt P24941)
# Description: Inhibition of Cyclin A-cyclin-dependent kinase 2
# [2] = Inhibition of Glycogen synthase kinase-3 beta
IC50 [1] [nM],IC50 [2] [nM],Structure (SMILES)
150,–,CN1CCN(S(=O)(=O)c2ccc(-n3nc(C(N)=O)c4ccc5[nH]ncc5c43)cc2)CC1
900,–,CC(=O)c1nn(-c2ccc(C)cc2)c2c1CCc1[nH]ncc1-2
210,–,CCCCNS(=O)(=O)n1nc(C(N)=O)c2c1-c1c[nH]nc1CC2
–,23,Cc1ccc(-n2nc(C(N)=O)c3ccc4[nH]ncc4c32)cc1
510,–,NC(=O)c1nn(-c2ccc(OC(F)(F)F)cc2)c2c1CCc1[nH]ncc1-2
80,–,NC(=O)c1nn(-c2ccc(C(F)(F)F)cc2)c2c1CCc1[nH]ncc1-2
> 10000,–,COc1ccc(-n2nc(N)c3ccc4[nH]ncc4c32)cc1
9,–,Cc1cccc(-n2nc(C(N)=O)c3ccc4[nH]ncc4c32)c1
250,–,NC(=O)c1nn(-c2ccc(C3=NCC=N3)cc2)c2c1CCc1n[nH]cc1-2
7500,–,CCOC(=O)c1nn(-c2ccc(OC)cc2)c2c1ccc1[nH]ncc12
210,–,COc1ccc(-n2nc(C(=O)NN)c3ccc4[nH]ncc4c32)cc1
1150,–,NC(=O)c1nn(CCO)c2c1CCc1[nH]ncc1-2
2100,–,COc1ccc(-n2nc(C(=O)NN)c3c2-c2cn[nH]c2CC3)cc1
1600,–,NC(=O)c1nn(-c2cccnc2)c2c1CCc1[nH]ncc1-2
8500,–,CCOC(=O)c1nn(-c2ccc(C)cc2)c2c1CCc1[nH]ncc1-2
10000,–,CCCCNS(=O)(=O)c1ccc(-n2nc(C(=O)OCC)c3c2-c2cn[nH]c2CC3)cc1
2,–,CCCCNS(=O)(=O)n1nc(C(N)=O)c2ccc3[nH]ncc3c21
8100,–,CCOC(=O)c1nn(-c2ccc(OC)cc2)c2c1CCc1[nH]ncc1-2

IC50 [1] [nM],IC50 [2] [nM],Structure (SMILES)
30,–,CS(=O)(=O)c1ccc(-n2nc(C(N)=O)c3c2-c2cn[nH]c2CC3)cc1
75,–,NC(=O)c1nn(-c2ccc(C3=NCC=N3)cc2)c2c1ccc1[nH]ncc12
210,–,COc1ccc(-n2nc(C(=O)O)c3ccc4[nH]ncc4c32)cc1
160,–,NC(=O)c1nn(-c2ccc(Cl)cc2)c2c1CCc1[nH]ncc1-2
600,–,CCCCNS(=O)(=O)n1nc(C(=O)NC)c2c1-c1c[nH]nc1CC2
190,–,N#Cc1ccc(-n2nc(C(N)=O)c3c2-c2cn[nH]c2CC3)cc1
2850,–,C=CCONC(=O)c1nn(S(=O)(=O)NCCCC)c2c1CCc1n[nH]cc1-2
87,> 10000,CC(C)CC1Cc2c[nH]nc2-c2c[nH]nc21 (configuration not stated)
> 10000,–,CN1CCN(S(=O)(=O)c2ccc(-n3nc(C(N)=O)c4c3-c3cn[nH]c3CC4)cc2)CC1
40,–,CNS(=O)(=O)c1ccc(-n2nc(C(N)=O)c3c2-c2cn[nH]c2CC3)cc1
–,460,Cc1ccc(-n2nc(C(N)=O)c3c2-c2c[nH]nc2CC3)cc1
1750,–,COc1ccc(-n2nc(C#N)c3ccc4[nH]ncc4c32)cc1
4500,–,C=CCONC(=O)c1nn(-c2ccc(OC)cc2)c2c1CCc1[nH]ncc1-2
20,–,CNS(=O)(=O)c1ccc(-n2nc(C(N)=O)c3ccc4[nH]ncc4c32)cc1
2100,–,COc1ccc(-n2nc(C(=O)O)c3c2-c2cn[nH]c2CC3)cc1
1200,–,CCCCNS(=O)(=O)n1nc(C(=O)O)c2c1-c1c[nH]nc1CC2
200,–,C=CCONC(=O)c1nn(S(=O)(=O)NCCCC)c2c1ccc1[nH]ncc12
610,–,CCCCNS(=O)(=O)n1nc(C(=O)NC)c2ccc3[nH]ncc3c21
